Source: patent US20020082419A1, “2,4-pentadienoic acid derivatives having retinoid-like biological activity” (Allergan Sales, Inc., priority 1995, published 2002)

Tests used:
RXRΓ = target: T1, RXRΓ (Mus musculus, UniProt P28705); test: Holoreceptor transactivation assay, RXRΓ; assay type: cell-based; details: for EC50: CV1 cells, luciferase reporter, 36 hours incubation; for Transactivation Assay Afficacy (% of RA activity) RXRΓ: relative to all trans retinoic acid
T1 construct: expressed in transfected cells; host or cells: CV1 cells
T1 sequence (P28705 1-463): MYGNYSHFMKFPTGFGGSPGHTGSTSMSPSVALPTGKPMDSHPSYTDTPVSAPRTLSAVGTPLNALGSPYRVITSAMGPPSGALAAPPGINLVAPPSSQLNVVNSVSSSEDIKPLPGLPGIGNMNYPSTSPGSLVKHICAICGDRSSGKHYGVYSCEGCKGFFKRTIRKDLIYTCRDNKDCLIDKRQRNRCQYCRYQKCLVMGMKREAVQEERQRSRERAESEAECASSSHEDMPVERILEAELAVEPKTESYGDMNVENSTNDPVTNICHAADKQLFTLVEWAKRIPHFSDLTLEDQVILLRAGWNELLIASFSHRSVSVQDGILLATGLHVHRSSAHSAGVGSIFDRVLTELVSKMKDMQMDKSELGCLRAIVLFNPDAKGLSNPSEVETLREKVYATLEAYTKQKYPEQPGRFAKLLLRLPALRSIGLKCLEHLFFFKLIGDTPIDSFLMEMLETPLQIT
Description: (§1) A description of the holoreceptor transactivation assay is also provided below.
(§2) (8). […] (8, 9). […] A β-galactosidase (50 ng) expression vector was used as an internal control in the transfections to normalize for variations in transfection efficiency. The cells were transfected in triplicate for 6 hours, followed by incubation with retinoids for 36 hours, and the extracts were assayed for luciferase and β-galactosidase activities. The detailed experimental procedure for holoreceptor transactivations has been described in Heyman et al. above, and Allegretto et al. cited above. […] The results of ligand binding assay are expressed in KD50 numbers.

RARΓ = target: T2, RARΓ (Homo sapiens, UniProt P13631); test: Holoreceptor transactivation assay, RARΓ; assay type: cell-based; details: for EC50: CV1 cells, luciferase reporter, 36 hours incubation; for Transactivation Assay Afficacy (% of RA activity) RARΓ: relative to all trans retinoic acid
T2 construct: expressed in transfected cells; host or cells: CV1 cells
T2 sequence (P13631 1-454): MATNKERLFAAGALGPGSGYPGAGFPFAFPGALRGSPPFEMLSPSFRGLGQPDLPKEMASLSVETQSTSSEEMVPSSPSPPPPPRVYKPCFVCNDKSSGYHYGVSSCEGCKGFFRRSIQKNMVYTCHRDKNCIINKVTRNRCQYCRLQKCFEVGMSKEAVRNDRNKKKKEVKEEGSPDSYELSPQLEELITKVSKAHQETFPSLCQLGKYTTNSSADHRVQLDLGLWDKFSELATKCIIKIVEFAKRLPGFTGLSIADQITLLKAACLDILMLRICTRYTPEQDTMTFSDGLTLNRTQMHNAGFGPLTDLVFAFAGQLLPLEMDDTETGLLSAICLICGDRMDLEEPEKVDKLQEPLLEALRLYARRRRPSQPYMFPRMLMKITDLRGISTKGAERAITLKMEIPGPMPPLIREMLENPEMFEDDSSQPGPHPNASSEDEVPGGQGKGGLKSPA
Description: as §1, §2

RXRβ = target: T3, RXRβ (Mus musculus, UniProt P28704); test: Holoreceptor transactivation assay, RXRβ; assay type: cell-based; details: relative to all trans retinoic acid; read-out: Transactivation Assay Afficacy (% of RA activity) RXRβ
T3 sequence (P28704 1-520): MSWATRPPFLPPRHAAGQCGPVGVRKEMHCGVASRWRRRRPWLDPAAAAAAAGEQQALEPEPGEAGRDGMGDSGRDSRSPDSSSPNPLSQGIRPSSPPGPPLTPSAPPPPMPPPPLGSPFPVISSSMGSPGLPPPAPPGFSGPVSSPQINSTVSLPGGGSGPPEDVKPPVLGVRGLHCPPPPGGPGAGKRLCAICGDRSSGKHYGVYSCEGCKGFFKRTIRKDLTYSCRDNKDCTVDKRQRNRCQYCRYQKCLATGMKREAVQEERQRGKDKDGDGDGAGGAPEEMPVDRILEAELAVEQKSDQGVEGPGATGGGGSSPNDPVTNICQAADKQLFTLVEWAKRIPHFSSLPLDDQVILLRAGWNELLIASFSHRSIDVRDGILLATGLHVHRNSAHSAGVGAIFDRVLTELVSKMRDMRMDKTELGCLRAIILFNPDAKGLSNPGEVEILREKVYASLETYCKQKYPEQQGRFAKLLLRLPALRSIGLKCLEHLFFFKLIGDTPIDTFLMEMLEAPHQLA
Description: as §1, §2

RXRα [1] = target: T4, RXRα (Homo sapiens, UniProt P19793); test: Holoreceptor transactivation assay, RXRα; assay type: cell-based; details: for EC50: CV1 cells, luciferase reporter, 36 hours incubation; for Transactivation Assay Afficacy (% of RA activity) RXRα: relative to all trans retinoic acid
T4 construct: expressed in transfected cells; host or cells: CV1 cells
T4 sequence (P19793 1-462): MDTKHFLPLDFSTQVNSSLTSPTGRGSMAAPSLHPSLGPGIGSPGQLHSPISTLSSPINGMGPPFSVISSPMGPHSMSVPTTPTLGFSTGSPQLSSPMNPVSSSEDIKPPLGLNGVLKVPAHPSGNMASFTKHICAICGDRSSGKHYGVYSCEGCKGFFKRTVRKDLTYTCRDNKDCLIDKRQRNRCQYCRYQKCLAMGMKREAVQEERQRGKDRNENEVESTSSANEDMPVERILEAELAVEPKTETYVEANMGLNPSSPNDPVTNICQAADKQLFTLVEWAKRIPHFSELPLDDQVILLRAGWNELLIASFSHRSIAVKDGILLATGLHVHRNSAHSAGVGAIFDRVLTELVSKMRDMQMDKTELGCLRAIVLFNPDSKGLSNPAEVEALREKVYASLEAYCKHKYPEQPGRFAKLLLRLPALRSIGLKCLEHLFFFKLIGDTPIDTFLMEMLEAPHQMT
Description: (§3) A holoreceptor transactivation assay and a ligand binding assay which measure the agonist like activity of the compounds of the invention, or their ability to bind to the several retinoid receptor sub-types, respectively, are described in published PCT Application No. WO WO93/11755 (particularly on pages 30-33 and 37-41) published on Jun. 24, 1993, the specification of which is also incorporated herein by reference. A description of the holoreceptor transactivation assay is also provided below.
(§4) CV1 cells (5,000 cells/well) were transfected with an RAR reporter plasmid ▴MTV-TREp-LUC (50 ng) along with one of the RAR expression vectors (10 ng) in an automated 96-well format by the calcium phosphate procedure of Heyman et al. Cell 68, 397-406. (8). For RXR transactivation assays, an RXR-responsive reporter plasmid CRBP II-TK-LUC (50 ng) along with one of the RXR expression vectors (10 ng) was used substantially as described by Heyman et al. above, and Allegretto et al. J. Biol. Chem. 268, 26625-26633. (8, 9). RXR-reporter contained DRI elements from human CRBP II promoter (see Mangelsdorf et al. The Retinoids: Biology, Chemistry and Medicine, pp 319-349, Raven Press Ltd., New York and Heyman et al., cited above) (1, 8). A β-galactosidase (50 ng) expression vector was used as an internal control in the transfections to normalize for variations in transfection efficiency. The cells were transfected in triplicate for 6 hours, followed by incubation with retinoids for 36 hours, and the extracts were assayed for luciferase and β-galactosidase activities. The detailed experimental procedure for holoreceptor transactivations has been described in Heyman et al. above, and Allegretto et al. cited above. The results obtained in this assay in connection with examplary compounds in accordance with the present invention are expressed in EC50 numbers, as they are also in the chimeric receptor transactivation assay. The Heyman et al. Cell 68, 397-406, Allegretto et al. J. Biol. Chem. 268, 26625-26633, and Mangelsdorf et al. The Retinoids: Biology, Chemistry and Medicine, pp 319-349, Raven Press Ltd., New York, are expressly incorporated herein by reference. The results of ligand binding assay are expressed in KD50 numbers.

RARβ = target: T5, RARβ (Homo sapiens, UniProt P10826); test: Holoreceptor transactivation assay, RARβ; assay type: cell-based; details: for EC50: CV1 cells, luciferase reporter, 36 hours incubation; for Transactivation Assay Afficacy (% of RA activity) RARβ: relative to all trans retinoic acid
T5 construct: expressed in transfected cells; host or cells: CV1 cells
T5 sequence (P10826 1-455): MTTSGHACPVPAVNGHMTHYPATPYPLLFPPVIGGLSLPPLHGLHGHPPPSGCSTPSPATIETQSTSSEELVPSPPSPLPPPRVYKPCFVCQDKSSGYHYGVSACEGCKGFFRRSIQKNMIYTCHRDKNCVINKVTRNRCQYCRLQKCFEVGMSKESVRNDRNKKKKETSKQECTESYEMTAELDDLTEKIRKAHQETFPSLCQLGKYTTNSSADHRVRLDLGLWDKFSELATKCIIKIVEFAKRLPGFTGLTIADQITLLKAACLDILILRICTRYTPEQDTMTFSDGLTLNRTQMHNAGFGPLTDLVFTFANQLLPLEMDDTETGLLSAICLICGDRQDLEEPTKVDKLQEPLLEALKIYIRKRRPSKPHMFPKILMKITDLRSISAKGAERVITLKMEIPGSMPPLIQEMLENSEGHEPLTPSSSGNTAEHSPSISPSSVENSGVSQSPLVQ
Description: as §1, §2

RARα = target: T6, RARα (Homo sapiens, UniProt P10276); test: Holoreceptor transactivation assay, RARα; assay type: cell-based; details: for EC50: CV1 cells, luciferase reporter, 36 hours incubation; for Transactivation Assay Afficacy (% of RA activity) RARα: relative to all trans retinoic acid
T6 construct: expressed in transfected cells; host or cells: CV1 cells
T6 sequence (P10276 1-462): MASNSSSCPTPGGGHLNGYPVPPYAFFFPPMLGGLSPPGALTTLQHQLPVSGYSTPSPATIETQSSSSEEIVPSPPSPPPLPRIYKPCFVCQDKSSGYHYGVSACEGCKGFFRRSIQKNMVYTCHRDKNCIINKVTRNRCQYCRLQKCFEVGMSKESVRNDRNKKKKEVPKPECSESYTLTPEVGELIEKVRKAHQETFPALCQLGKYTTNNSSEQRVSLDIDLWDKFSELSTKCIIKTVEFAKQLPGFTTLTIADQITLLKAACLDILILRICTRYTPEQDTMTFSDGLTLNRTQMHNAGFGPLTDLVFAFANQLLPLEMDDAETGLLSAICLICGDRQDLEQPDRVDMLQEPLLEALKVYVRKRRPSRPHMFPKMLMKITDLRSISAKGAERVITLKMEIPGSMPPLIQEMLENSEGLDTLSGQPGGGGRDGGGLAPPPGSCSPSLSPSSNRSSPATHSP
Description: as §1, §2

RXRα [2] = target: T4, RXRα; test: Ligand binding assay, RXRα; details: read-out: Ligand Binding Assay KD50 RXRα
Description: as §3
as §4, with “The Heyman et al. Cell 68, 397-406, Allegretto et al. J. Biol. Chem. 268, 26625-26633, and Mangelsdorf et al. The Retinoids: Biology, Chemistry and Medicine, pp 319-349, Raven Press Ltd., New York, are expressly incorporated herein by reference. The results of ligand binding assay are expressed in KD50 numbers.” left out

EC50 (RXRΓ)	Transactivation Assay Afficacy (% of RA activity) RXRΓ (RXRΓ)	EC50 (RARΓ)	Transactivation Assay Afficacy (% of RA activity) RARΓ (RARΓ)	Emax (RXRβ)	EC50 (RXRα [1])	Transactivation Assay Afficacy (% of RA activity) RXRα (RXRα [1])	EC50 (RARβ)	Transactivation Assay Afficacy (% of RA activity) RARβ (RARβ)	EC50 (RARα)	Transactivation Assay Afficacy (% of RA activity) RARα (RARα)	Kd (RXRα [2])	SMILES
71 nM	40.0 % of RA activity	> 1000 nM	8.0 % of RA activity	72%	130 nM	55.0 % of RA activity	> 1000 nM	3.0 % of RA activity	> 1000 nM	0.0 % of RA activity	71 nM	CC(C=CC1CC1(C)c1cc2c(cc1C)C(C)(C)CCC2(C)C)=CC(=O)O (stereo not drawn) [Compound 13, 3,7-Dimethyl,6(RS),7(SR) methano-7-(3,5,5,8,8-pentamethyl-5,6,7,8-tetrahydronaphth-2-yl),2(E),4(E)-heptadienoic Acid]
13 nM	73 % of RA activity	270 nM	41 % of RA activity	118%	30 nM	111 % of RA activity	48 nM	29 % of RA activity	1200 nM	30 % of RA activity	3 nM	CC(C=CC1CC1(C)c1ccc2c(c1)C(C)(C)CCS2)=CC(=O)O (stereo not drawn) [Compound 17, 3,7-Dimethyl,6(RS),7(SR) methano-7-(4,4-dimethylthiochroman-6-yl) 2(E),4(E)-heptadienoic Acid]
29 nM	85.0 % of RA activity	> 1000 nM	14.0 % of RA activity	93%	27 nM	83.0 % of RA activity	1800 nM	26.0 % of RA activity	> 1000 nM	4.0 % of RA activity	5 nM	CC(C=CC1CC1(C)c1ccc2c(c1)C(C)(C)CCO2)=CC(=O)O (stereo not drawn) [Compound 21, 3,7-Dimethyl,6(RS),7(SR) methano-7-(4,4-dimethyl-chroman-6-yl),2(E),4(E)-heptadienoic Acid]

SMILES	EC50 (RXRΓ)	Transactivation Assay Afficacy (% of RA activity) RXRΓ (RXRΓ)	EC50 (RARΓ)	Transactivation Assay Afficacy (% of RA activity) RARΓ (RARΓ)	Emax (RXRβ)	EC50 (RXRα [1])	Transactivation Assay Afficacy (% of RA activity) RXRα (RXRα [1])	EC50 (RARβ)	Transactivation Assay Afficacy (% of RA activity) RARβ (RARβ)	EC50 (RARα)	Transactivation Assay Afficacy (% of RA activity) RARα (RARα)	Kd (RXRα [2])
CC(/C=C/c1ccccc1-c1ccc2c(c1)C(C)(C)CCC2(C)C)=C\C(=O)O [Compound 9, 3-Methyl-5-[2-(5,5,8,8,-tetramethyl-5,6,7,8-tetrahydronaphth-2-yl)phenyl]pent-2(E),4(E)-dienoic Acid]	240 nM	50.0 % of RA activity	> 1000 nM	8.0 % of RA activity	94%	290 nM	59.0 % of RA activity	> 1000 nM	8.0 % of RA activity	> 1000 nM	2.0 % of RA activity	
